Results from patent US5877154A, “Pharmaceutical compositions for the treatment or prevention of disorders in the eye” (Ramot University Authority for Applied Research and …, priority 1992, dated 1999).

Key:
[1] = system: prostaglandin type E2 (PGE2) production; experiment: PGE2 production in eyes of rats exposed to UV irradiation; type: in vivo, albino rats; details: dexamethasone 4 mg/kg per day, melanotropin 10 μg per day
Description: One eye of albino rats of either sex weighing 200-250 gm was exposed to UV irradiation (200-400 nm) for 15 min. daily for 4 consecutive days. The other contralateral eye of each rat was not exposed to the irradiation and served as a control.
The animals were divided into three groups (8 rats in each group) as follows: (1) untreated; (2) rabbits exposed to UV irradiation and a daily intermuscular (i.m.) injection of 4 mg/kg dexamethasone; and (3) rabbits exposed to UV irradiation and treated with a daily injection (i.m.) of 10 μg/kg of melanotropin.
In the treated group of animals, the specific treatment began each day within one hour after the UV exposure. The animals were sacrificed two days following the last UV irradiation and the eyes were frozen at -70° C. The cornea was disected and incubated in a shaking bath at 37° C. for 40 mins. in a Heppes buffer (pH=7.4). At the end of the incubation, a sample was obtained from the medium and the contents of the leukotrien B4 (LTB4) was determined by a radioimmunoassay (RIA) technique using a New England Nuclear Kit with a specific antibody against LTB4.
The production of prostaglandin type E2 (PGE2) was also measured in the eyes of three groups of rats. The amount of PGE2 in the eyes exposed to UV irradiation was higher than in the nonirradiated control eyes (4.1±1.9 pg/mg weight as compared to 1.8±0.3 pg/mg weight, p=0.001).

[2] = system: leukotriene B4 (LTB4) production in the corneas; experiment: LTB4 production in corneas of rats exposed to UV irradiation; type: in vivo, albino rats; details: dexamethasone 4 mg/kg per day, melanotropin 10 μg/kg per day, irradiated untreated 2.47±0.8
Description: The antinflammatory activity of melanotropin in the eye was measured by the ability of the melanotropin to inhibit the production of the leukotriene (LTB4) which is produced during the inflammatory response elicited by noxious stimulae to the cornea.
The ability of melanotropin to inhibit an inflammatory response was determined in corneas of albino rats subjected to UV irradiation. The parameter used to measure the inflammatory response was the amount of production of leukotriene B4--known for its modulatory action in inflammation.
One eye of albino rats of either sex weighing 200-250 gm was exposed to UV irradiation (200-400 nm) for 15 min. daily for 4 consecutive days. The other contralateral eye of each rat was not exposed to the irradiation and served as a control. […]
In the treated group of animals, the specific treatment began each day within one hour after the UV exposure. […] At the end of the incubation, a sample was obtained from the medium and the contents of the leukotrien B4 (LTB4) was determined by a radioimmunoassay (RIA) technique using a New England Nuclear Kit with a specific antibody against LTB4.

[3] = system: human skin fibroblast (HSF) cell culture; experiment: 3H-Thymidine uptake by human skin fibroblast cell culture; type: cell-based; details: bFGF 9 ng/ml; EGF 10 ng/ml; melanotropin 10^-6 M and 10^-7 M; serum free medium, FIG. 2
Description: HSF cells were grown in DMEM (Dulbeccos Modified Eagles Media) supplemented with 10% heat inactivated fetal calf serum, 2 mM glutamine and antibiotics (100 U/mi penicillin G, 0.25 mg/ml amphotericin B and 0.1 mg/ml streptomycin) (Biological Industries, Beth Haemek, Israel) in 56.7 cm^2 tissue culture flasks (Nunc, Roskilde, Denmark) at 37° C. in a 10% CO2 humidified atmosphere incubator. When the cells reached confluency, they were tripsinized by incubation with 0.083% tripsine (Biological Industries, Beth HaEmek, Israel) for a few minutes at 37° C. and seeded (please complete). The growth medium of the cells with or without drugs was changed twice a week.
The wells were then divided into five groups and a different medium was added to the wells of each group as described in Example 1. The medium added to each of the five groups was: (1) serum free medium containing melanotropin 10^-6 M; (2) serum free medium containing melanotropin 10^-7 M; (3) serum free medium containing EGF 10 ng/ml; (4) serum free medium containing bFGF 9 nn/ml; and (5) serum free medium only.
The degree of ^3 H-Thymidine uptake by human skin fibroblast was determined as described in Example 1.

[4] = system: bovine vascular endothilial cells (ABAE); experiment: 3H-Thymidine uptake by bovine vascular endothelial cells; type: cell-based; details: bFGF 9 ng/ml; EGF 10 ng/ml; melanotropin 10^-6 M and 10^-7 M; single set of experiments
Description: ABAE cells were grown in DMEM (Dulbeccos Modified Eagles Media) supplemented with 5% heat inactivated fetal calf serum, 5% heat inactivated newborn calf serum, 2 mM glutamine and antibiotics (100 U/ml penicillin G, 0.25 mg/ml amphotericin B and 0.1 mg/ml streptomycin) (all from Biological Industries, Beth HaEmek, Israel) in 56.7 cm^2 tissue culture dishes (Nunc, Roskilde, Denmark) at 37° C. in a humidified atmosphere incubator with 10% CO2.
The cultures were supplemented every other day with 10^-9 ng/ml of bFGF until they reached confluency.
The cells were then trypsinized by adding 0.041% trypsin (Biological Industries, Beth HaEmek, Israel) for a few minutes at 37° C. The cells were then diluted by a factor of six and plated in microwell plates. Growth medium was changed twice a week.
The cells were then divided into five groups as described in Examples 1 and 2 and a different medium was added to the wells of each group as follows: (1) serum free medium containing melanotropin 10^-6 M; (2) serum free medium containing melanotropin 10^-7 M; (3) serum free medium containing EGF 10 ng/ml; (4) serum free medium containing bFGF 9 ng/ml; and (5) serum free medium alone.
The degree of ^3 H-Thymidine uptake by the cells was again determined as described in Examples 1 and 2.

bovine RPE cells = experiment: wound closure technique: proliferation and migration of RPE cells over denuded area; type: cell-based; details: bFGF 10^-10 mg/ml
Description: The ability of RPE cells to proliferate and migrate over denuded areas was measured using a slight modification of the previously known technique termed "wound closure technique" (Jumblatt and Neufeld, 1986).
In this example bovine RPE cells were grown as described in Example 1 and plated in microwell plates containing 16 ml wells. When the cultures reached confluency, sloughing of the cells from a centrally located area in each well was carried out using a very sharp blade. In order to remove non adherent cells, each well was rinsed with a 1 ml Earle's balanced salt solution (EBSS: Gibco). The cultures were photographed at the time of the sloughing and at 12, 24 and 48 hours after the sloughing procedure. In this way the size of the denuded area in the culture at the time of the sloughing was documented and could be compared later to the same cultures at different time periods after the denudation.
The ability of the bovine RPE cells to proliferate and migrate over the denuded area in the well was determined by analyzing the covered and uncovered area in the photographs of the cultures taken at different time periods as described in Jumblatt & Neufeld (ibid). The rate of the "wound" closure was calculated as mm^2 per hour or as the percentage of the covered area in the culture wells at a specific time period.
The bovine RPE cell cultures were divided into six groups. […]

Molecule | PGE2 produced by UV irradiated corneas compared with irradiated but untreated corneas [1] | LTB4 produced by the corneas of the UV irradiated eyes [2] | 3H-Thymidine uptake of human skin fibroblasts as compared to cells treated with medium alone [3] | 3H-Thymidine uptake by the bovine vascular endothilium cells [4] | cell covered area in the wells (bovine RPE cells; 12 hours after the wounding) | cell covered area in the culture (bovine RPE cells; 48 hours after addition, p<0.05 vs medium alone)
C[C@@H]1C[C@H]2[C@@H]3CCC4=CC(=O)C=C[C@]4(C)[C@@]3(F)[C@@H](O)C[C@]2(C)[C@@]1(O)C(=O)CO [dextamethasone, dexamethasone] | lower than the amount of the PGE2 in the irradiated but untreated rats' corneas | 9.38±2.4 pg/mg weight |  |  |  | 
EGF: Epidermal growth factor, comparison growth factor |  |  | did not cause any increase | significant induction |  | 
bFGF: basic fibroblast growth factor, comparison growth factor |  |  | five-fold increase | significant induction | 11.4±1.1 mm^2 | 21.1±0.7 mm^2
